This test relates to influenza. Details: species or system mice. Particulars: mouse, in vivo.

As for GLA, the “Th1 T cell responses (antigen-specific IgG2a titers and IFNγ production)” value is “dramatic increase in antigen-specific IgG2a titers and IFNγ production”.

Source of the values: patent US20110305748A1 (priority 2010, published 2011).
